Earlier results on one molecule are cited in patent US20120189694A1, “CO-PRECIPITATE COMPRISING A PHOSPHODIESTERASE-5 INHIBITOR (PDE-5-INHIBITOR) AND A […] COMPATIBLE CARRIER, PRODUCTION AND USE THEREOF” (ratiopharm GmbH, priority 2009, published 2012).

Structures are written as SMILES.

For series [1] the following is noted: in vivo.
The conditions of series [2]: according to WO 01/08687.

With `CN1CC(=O)N2[C@H](c3ccc4c(c3)OCO4)c3[nH]c4ccccc4c3C[C@@H]2C1=O` [tadalafil, (6R,12aR)-6-(1,3-benzodioxol-5-yl)-2-methyl-1,2,3,4,6,7,12,12a-octahydropyrazino[2′,1′:6,1]pyrido[3,4-b]indole-1,4-dione], the “time the action lasts” value in series [1] is given as “up to 36 hours”. Further, the solubility in water entry in series [2] is “about 2 μg/ml”.
